Earlier results, collected in patent US7981441B2, “Drug delivery systems using mesoporous oxide films” (The Board of Trustees of the Leland Stanford Junior …, priority 2004, dated 2011).

What was measured:
[1] = test system: rabbit neointimal hyperplasia; settings: pLA/pCL copolymer-coated stents containing 200 μg of paclitaxel; months after stent implantation
[2] = test system: porcine neointimal hyperplasia; settings: bare stent, dip-coating; 0, 0.2, 15 and 187 μg/stent; at 4 weeks
[3] = 4 to six acrylate sleeves each loaded with 800 micrograms

Compound	effect on rabbit neointimal hyperplasia [1]	effect on porcine neointimal hyperplasia [2]	clinical outcome of study [3]
CC(=O)O[C@H]1C(=O)[C@@]2(C)[C@H]([C@H](OC(=O)c3ccccc3)[C@]3(O)C[C@H](OC(=O)[C@H](O)[C@@H](NC(=O)c4ccccc4)c4ccccc4)C(C)=C1C3(C)C)[C@]1(OC(C)=O)CO[C@@H]1C[C@@H]2O [paclitaxel]	virtually abolished	significant dose-dependent inhibition	–
CCCCCC(=O)O[C@H]1C[C@H]2OC[C@@]2(OC(C)=O)[C@H]2[C@H](OC(=O)c3ccccc3)[C@]3(O)C[C@H](OC(=O)[C@H](O)[C@@H](NC(=O)c4ccccc4)c4ccccc4)C(C)=C([C@@H](OC(C)=O)C(=O)[C@]12C)C3(C)C [7-hexanoyltaxol]	–	–	clinically unpromising
